# Data: patent publication US6548543B1, “Remedies or preventives containing cyclopentenone compounds as the active ingredient” (Takara Shuzo Co., Ltd., priority 1998, dated 2003)
# Experiments:
# [1] = system: λ-carrageenan pedal edema; experiment: Carrageenan induced pedal edema; assay type: in vivo, Lewis rats; details: rat, 3 hours after carrageenan
# Procedure: Lewis rats (male, 9 weeks old, weighing about 250 g) were purchased from Seac Yoshitomi.
# Rats were fasted from 18 hours before the start of the experiments. Dipropionylcyclopentenone, dihexanoylcyclopentenone, di-2-hexenoylcyclopentenone, diisobutyrylcyclopentenone or dibenzoylcyclopentenone dissolved in olive oil (Nacalai Tesque) was orally administered to 4 rats per group at 1 or 10 mg/10 ml/kg.
# 100 μl of 1% λ-carrageenan (Wako Pure Chemical Industries) suspension in saline (Otsuka Pharmaceutical) was injected into the sole of right paw of a rat 0.5 hour after the administration of test substance to induce pedal edema. The volume of the right foot of the rat was measured using an instrument for measuring pedal volume (Ugo Basile) 3 hours after the injection with carrageenan. The measurements were expressed as the rate of increase calculated based on the volume of the right foot of each rat measured before the administration with carrageenan.
# FIG. 5 illustrate the relationship between the amount of cyclopentenone derivative administered and the rate of increase in edema in foot. The horizontal axis represents the dose […] and the vertical axis represents the rate of increase (%).
# [2] = Single oral dose toxicity; assay type: in vivo; details: mouse, oral, single dosage of 100 mg/kg
# Procedure: No toxicity is observed when a physiologically effective amount of the cyclopentenone derivative or an optical isomer thereof, or a salt thereof obtained according to the present invention is administered.
# topoisomerase I = target: T1, topoisomerase I (Homo sapiens, UniProt P11387); experiment: Topoisomerase I inhibition, pBR322 DNA relaxation; assay type: biochemical; details: 37° C., 30 minutes
# T1 construct: purchased TopoGEN
# T1 sequence (P11387 1-765): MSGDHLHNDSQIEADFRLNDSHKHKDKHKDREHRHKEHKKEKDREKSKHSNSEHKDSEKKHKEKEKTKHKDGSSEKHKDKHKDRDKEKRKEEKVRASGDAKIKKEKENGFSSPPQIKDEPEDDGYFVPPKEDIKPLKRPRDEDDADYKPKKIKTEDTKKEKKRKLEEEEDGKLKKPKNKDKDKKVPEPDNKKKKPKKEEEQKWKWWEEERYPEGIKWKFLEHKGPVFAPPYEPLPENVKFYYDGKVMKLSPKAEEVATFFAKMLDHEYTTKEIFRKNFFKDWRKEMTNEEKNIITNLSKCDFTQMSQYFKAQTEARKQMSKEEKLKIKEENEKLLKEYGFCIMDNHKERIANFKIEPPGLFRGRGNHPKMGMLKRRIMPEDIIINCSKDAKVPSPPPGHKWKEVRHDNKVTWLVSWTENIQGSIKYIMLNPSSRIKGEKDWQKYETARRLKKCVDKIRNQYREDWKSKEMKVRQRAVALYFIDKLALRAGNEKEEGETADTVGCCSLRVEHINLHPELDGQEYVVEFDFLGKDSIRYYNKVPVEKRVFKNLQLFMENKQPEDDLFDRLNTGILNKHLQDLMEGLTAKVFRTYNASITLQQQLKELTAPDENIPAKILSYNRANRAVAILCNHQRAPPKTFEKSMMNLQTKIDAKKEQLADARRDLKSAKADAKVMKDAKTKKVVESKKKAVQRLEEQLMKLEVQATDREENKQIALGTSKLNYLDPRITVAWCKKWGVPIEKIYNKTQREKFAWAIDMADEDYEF
# Procedure: (1) 2 μl of topoisomerase II (TopoGEN; 2 units/μl), 2 μl of 10-fold concentrated buffer [0.5 M Tris-HCl (pH 8.0), 1.2 M KCl, 0.1 M MgCl2, 2.5 mM adenosine triphosphate, 5 mM dithiothreitol], 2 μl of 0.1% bovine serum albumin (Takara Shuzo), 11 μl of distilled water and 2 μl of distilled water (control) or 2 μl of one of aqueous solutions of dipropionylcyclopentenone, diisobutyrylcyclopentenone, dibenzoylcyclopentenone, dihexanoylcyclopentenone, di-2-hexenoylcyclopentenone, dimethoxyacetylcyclopentenone, dimethylfumarylcyclopentenone or dimethylmaleylcyclopentenone at varying concentrations were mixed together. 1 μl of 0.25 μg/μl pBR322 DNA (Takara Shuzo) was added thereto. The resulting mixture was reacted at 37° C. After reacting for 30 minutes, 2 μl of an aqueous solution containing 1% sodium dodecyl sulfate, 50% glycerol and 0.02% Bromophenol Blue was added thereto to stop the reaction. […]
# (2) The activity of inhibiting topoisomerase I of each of the cyclopentenone derivatives was determined as described in Example 3-(1) except that topoisomerase I (TopoGEN; 0.01 unit/μl) was used in place of topoisomerase II and a solution containing 100 mM Tris-HCl (pH 7.9), 10 mM EDTA, 1 mM spermidine and 50% glycerol was used as 10-fold concentrated buffer.
# HSP70 = details: cited from earlier work
Structure (SMILES),Suppression of edema in foot (FIG. 5) ([1]; 1 mg/kg oral),Suppression of edema in foot (FIG. 5) ([1]; 10 mg/kg oral),Death after single oral administration [2],Concentration at which change of DNA from superhelical type to relaxed type was partially or completely inhibited (topoisomerase I),Concentration required for inducing HSP70 (HSP70)
O=C(OC1C=CC(=O)C1OC(=O)c1ccccc1)c1ccccc1 (centres unmarked),Tendency of suppression,significant suppression,no death was observed,≥ 50 µM,–
O=C1C=CCC1 [2-cyclopenten-1-one],–,–,–,–,several hundred
